Measurements taken from patent US9861103B2, “Combination of pethoxamid and picloram” (CHEMINOVA A/S, priority 2013, dated 2018).

Test system: Galium aparine
Experiment: Field trials in winter oilseed rape: visually estimated weed control of Galium aparine, synergy by the Colby method
Assay type: in vivo
Conditions: pethoxamid 1200 g a.i/ha, picloram 23 g a.i/ha, A + B 1200 + 23 g/ha
Text: Two field trials are established in commercial fields of winter oilseed rape Brassica napus, at sites known to contain natural populations of broad-leaved weeds, including Galium aparine. Plots, with a minimum size of 18 m^2, are arranged with three replicates per treatment.
At each trial, each treatment is applied using a small plot sprayer fitted with flatfan nozzles in a spray volume of 200 l/ha at one of three treatment timings: Timing A—early post-emergence of the oilseed rape, when the crop is at cotyledon to one true leaf stage (BBCH10/11) and pre-emergence of G. aparine; Timing B—when the crop has two true leaves (BBCH 12) of the crop and at emergence of G. aparine (BBCH09-10). Full application details are recorded, including weather and soil conditions, as well as growth stages and populations of crop and weed species.
Weed control is then assessed by visually estimating the control, as a percentage, relative to the ground cover and vigour of each weed species in the untreated plots. The weed control evaluation is made at 24-27 days, 40-46 days, 54-60 days and 75-81 days after treatment Timing A.
The data is then analysed using the Colby method to determine synergy.

[1] = Timing A (crop BBCH10/11, pre-emergence of G. aparine), 24-27 days after Timing A
[2] = Timing A (crop BBCH10/11, pre-emergence of G. aparine), 40-46 days after Timing A
[3] = Timing A (crop BBCH10/11, pre-emergence of G. aparine), 54-60 days after Timing A
[4] = Timing A (crop BBCH10/11, pre-emergence of G. aparine), 75-81 days after Timing A
[5] = Timing B (crop BBCH 12, at emergence of G. aparine BBCH09-10), 24-27 days
[6] = Timing B (crop BBCH 12, at emergence of G. aparine BBCH09-10), 40-46 days
[7] = Timing B (crop BBCH 12, at emergence of G. aparine BBCH09-10), 75-81 days

SMILES	Weed control (visual estimate relative to untreated plots) [1] [%]	Weed control (visual estimate relative to untreated plots) [2] [%]	Weed control (visual estimate relative to untreated plots) [3] [%]	Weed control (visual estimate relative to untreated plots) [4] [%]	Weed control (visual estimate relative to untreated plots) [5] [%]	Weed control (visual estimate relative to untreated plots) [6] [%]	Weed control (visual estimate relative to untreated plots) [7] [%]
CCOCCN(C(=O)CCl)C(=C(C)C)c1ccccc1 [pethoxamid]	56.67	20	43.33	23.33	20	6.67	50
Nc1c(Cl)c(Cl)nc(C(=O)O)c1Cl [picloram]	0	0	30	30	10	6.67	43.33
